Measured values from patent publication US9265747B2, “Platinum (IV) complexes for use in dual mode pharmaceutical therapy” (Massachusetts Institute of Technology, priority 2008, dated 2016).
Entries after “also recorded” stand apart in the source; their conditions may differ.

What was measured:
[1] = system: A2780/CP70, cisplatin-resistant human ovarian carcinoma; test: MTT assay, A2780/CP70 cells; format: cell-based; settings: 72 h; for IC50: A2780/CP70 cisplatin resistant cells
Protocol: (§1) A more negative membrane potential might promote translocation of the active, cationic form of cisplatin from the cytoplasm to mitochondria, thus diminishing platination of nuclear DNA. […] Thus, a pair of cisplatin sensitive A2780 and resistant A2780/CP70 ovarian cancer cells were studied (Table 1 and FIG. 10). […] (▴) with (A) cisplatin sensitive A2780 cells and (B) cisplatin resistant A2780/CP70 cells, after 72 h as determined by the MTT assay. The controls were cisplatin and c,c,t-[Pt(NH3)2Cl2(O2CCH3)2]. […] Results for the A2780/CP70 cells indicate that DCA plays a role, in this embodiment, in making cisplatin-resistant cells susceptible towards mitaplatin treatment.
(§2) MTT Assay. Cytotoxic behavior of compound 1, DCA and cis-DDP were evaluated using the MTT assay. Solutions of the platinum complexes were freshly prepared in sterile PBS before use and quantitated by atomic absorption spectroscopy. Cells were seeded on a 96 well plate (1000 cells per well for NTera-2, U2OS, HeLa; 1400 per well for normal fibriblast; 500 per well for 7B, 10B, 175F and 150×2) in 100 μL DMEM media and incubated for 24 hours. The cells were then treated with compound 1, DCA or cis-DDP, separately at varying concentrations and incubated for 72 hours at 37° C. The cells were then treated with 20 μL of 3-(4,5-dimethylthiazol-2-yl)-2,5-diphenyltetrazolium bromide (MTT) (5 mg/mL in PBS) and incubated for 5 h. The medium was removed, the cells were lysed by adding 100 μl, of DMSO, and the absorbance of the purple formazan was recorded at 550 nm using a BioTek Synergy HT multi-detection microplate plate reader. Each well was performed in triplicate in three independent experiments for each cell line.

[2] = system: MRC-5, normal lung fibroblast; test: MTT assay, MRC-5 normal cells; format: cell-based, human
Protocol: as §2

[3] = system: NTera-2, human testicular cancer; test: MTT assay, NTera-2 cells; format: cell-based
Protocol: (§3) Cell Line and Cell Culture. Healthy normal fibroblast GM61869, human cancer NTera-2, human cervical cancer HeLa, human osteosarcoma cell line U2OS were obtained from the ATCC. Cells were incubated at 37° C. in 5% CO2 and grown in DMEM medium supplemented with 10% fetal bovine serum and 1% penicillin/streptomycin. Cells were passed every 3 to 4 days and restarted from the frozen stock upon reaching pass number 20.
as §2

[4] = system: A2780, human ovarian carcinoma; test: MTT assay, A2780 cells; format: cell-based; settings: A2780 cisplatin sensitive cells, 72 h
Protocol: as §1, §2

[5] = system: HeLa, human cervical cancer; test: MTT assay, HeLa cells; format: cell-based; settings: 72 hours
Protocol: as §3, §2

[6] = system: A549, human lung carcinoma; test: MTT assay, A549 cells; format: cell-based; settings: 72 hours
Protocol: [The procedure below names another cell line; the source lists this cell line under the same test.] as §2

U2OS, human osteosarcoma = test: MTT assay, U2OS cells; format: cell-based; settings: 72 hours
Protocol: as §3, §2

[7] = system: MCF-7, human breast adenocarcinoma; test: MTT assay, MCF-7 cells; format: cell-based
Protocol: [The procedure below names another cell line; the source lists this cell line under the same test.] as §2

U2OS = test: Annexin-V flow cytometry, U2OS cells; format: cell-based, human; settings: 10 and 20 μM, 72 h
Protocol: (§4) In order to quantify mitaplatin-induced apoptosis in cancer cells, an Annexin-V was performed and analyzed using flow cytometry. With this analysis, the percentage of apoptotic cells found was determined at 72 h after exposure of mitaplatin and cisplatin.

NTera-2 cells [8] = test: Immunofluorescence detection of cytochrome c and AIF; format: cell-based, human; settings: treated NTera-2 cells
Protocol: Detection of cytochrome c and AIF. Normal fibroblast or Ntera-2 cells were seeded on microscope coverslips (1 cm) at a confluence of 1600 cells per slip and incubated overnight at 37° C. in DMEM. The medium was changed and compound 1 was added to a final 500 μM. The cells were incubated for 24 or 48 h at 37° C. Medium was then removed and the cells were incubated with fixing solution for 1 h at room temperature followed by three washes with phosphate buffered saline (PBS, pH 7.4). Cells were then fixed with 4% paraformaldehyde in 0.1 M phosphate buffer (pH 7.4) at room temperature for 1 h, washed twice with PBS. Cells were then permeabilize with 0.1% Triton-X100 in PBS for 30 min, followed by six washes with PBS. Cells were then rinsed with blocking buffer (PBS, 0.1% goat serum, 0.075% glycin). Cells were then incubated for 1 h at 37° C. with the anti-cytochrome c (anti-cytochrome c (Ab-1) Sheep pAb, Calbiochem) antibody or AIF (AIF (H-300), Santa Cruz Biotechnology Inc.) antibody both diluted 1:50 in blocking buffer, washed twice with blocking buffer and incubated at 37° C. with Alexa Fluor 488 donkey anti sheep IgG (Invitrogen) antibody for cytochrome c release and Alexa Fluor 546 goat anti-rabbit IgG (Invitrogen) antibody for AIF (dilution 1:50 in blocking buffer) for 1 h. […]

[9] = Cyclic voltammetry, Pt(IV)/Pt(II) couple; format: physicochemical
Text: Materials and Measurements. The complexes cis-[Pt(NH3)2Cl2], and c, c, t-[Pt(NH3)2Cl2(OH)2] were synthesized as previously described. Distilled water was purified by passage through a Millipore Milli-Q Biocel water purification system (18.2 MΩ) with a 0.22 μm filter. For the detection of cisplatin 1,2-d(GpG) intrastrand adduct, a monoclonal adduct specific antibody R-C18 was used which was a gift from Anti-cytochrome c (Ab-1) sheep polyclonal antibody was procured from Calbiochem. For AIF detection, rabbit polyclonal IgG antibody was used from Santa Cruz Biotechnology, Inc. Alexa Fluor® 488 labeled secondary antibody donkey anti-(sheep IgG) was obtained from Invitrogen for cytochrome c detection. For AIF detection, Alexa Fluor® 546 labeled secondary antibody goat anti-(rabbit IgG) was purchased from Invitrogen. […] JC-1 (5,5′, 6,6′-tetrachloro-1,1′,3,3′ tetraethylbenzimidazolylcarbocyanine iodide) was obtained from Cayman Chemicals. ^1H NMR and ^195Pt NMR spectra were recorded on a Bruker AVANCE-400 NMR spectrometer with a Spectro Spin superconducting magnet in the Massachusetts Institute of Technology Department of Chemistry Instrumentation Facility (MIT DCIF). […] Fluorescence imaging studies were performed with an Axiovert 200M inverted epifluorescence microscope (Zeiss, Thornwood, N.Y.) equipped with an EM-CCD digital camera C9100 (Hamamatsu, Japan). […]

[10] = system: human lung cancer A549 cells and normal human lung fibroblasts MRC-5; test: LIVE/DEAD viability assay in co-culture; format: cell-based; settings: co-culture A549 and MRC-5, exposure for 24 h
Protocol: Studies were also conducted on a co-culture of human lung cancer A549 cells and normal human lung fibroblasts MRC-5. […] The assay allowed for the simultaneous determination of live and dead cells in a co-culture by labeling live cells with calcein AM dye, which fluoresces only when cleaved by intracellular esterase enzymes, and ethidium […] (EthD-1), which only enters dead cells with disrupted cell membranes. […] Following mitaplatin or cisplatin exposure for 24 h, cells were stained with calcein AM (green fluorescence) and ethidium homodimer-1 (red fluorescence) to differentiate between live and dead cells, respectively.

[11] = system: healthy normal fibroblast cells; test: TMRM mitochondrial membrane potential assay, normal fibroblasts; format: cell-based; settings: listed as compound 1
Protocol: (§5) TMRM Assay. Analysis of mitochondrial membrane potential (Δψm) was carried out by using tetramethyl rhodamine methyl ester (TMRM). A similar procedure as mentioned above for the JC-1 assay was followed. Before fixing the cells, they were treated with 2 μM of TMRM for 30 min at 37° C.

normal MRC-5 cells = test: Annexin-V flow cytometry, normal MRC-5 cells; format: cell-based, human; settings: 72 h, cisplatin at 10 μM
Protocol: as §4

[12] = system: normal fibroblasts and cancerous NTera-2 cells; test: Co-culture of normal fibroblasts and cancerous NTera-2 cells; format: cell-based, human
Text: Cisplatin kills both NTera-2 and normal fibroblast cells

[13] = system: human cancer NTera-2 cells; test: JC-1 mitochondrial membrane potential assay, NTera-2 cells; format: cell-based; settings: 100 μM, 4 h and 48 h
Text: (§6) The following describes a mitochondrial membrane potential assay using compound 1. JC-1 Assay: Mitochondrial attack is associated with a drop in mitochondrial transmembrane potential (Δψm). For this reason Δψm, is an important parameter of mitochondrial function and has been used as an indicator for mitochondrial death. Variation in Δψm can be studied by evaluating the changes in fluorescence intensity of cells stained with lipophilic cationic dye, 5,5′,6,6′-tetrachloro-1,1′,3,3′-tetraethylbenzimidazolylcarbocyanine iodide (JC-1). It can selectively enter mitochondria and reversibly change color from green to red as the membrane potential increases.
(§7) The negative charge established by the mitochondrial membrane potential allows the lipophilic dye, bearing a delocalized positive charge, to enter the mitochondria where it accumulates. When the critical concentration is exceeded, J-aggregates form, which becomes red. In apoptotic cells, the mitochondrial membrane potential collapses, and the JC-1 can not accumulate within the mitochondria. In these cells, JC-1 remains in the cytoplasm in a green fluorescent monomeric form. Apoptotic cells, showing primarily green fluorescence, are easily differentiated from the healthy cells which show mainly red fluorescence.
(§8) JC-1 Assay. Normal and NTera-2 cells were cultured on cover slips to a density of 1×10^6 cells/mL and incubated overnight at 37° C. […]

A549 = test: Annexin-V flow cytometry, A549 cells; format: cell-based, human; settings: 10 and 20 μM, 72 h
Protocol: as §4

NTera-2 cells [14] = test: TMRM mitochondrial membrane potential assay, NTera-2 cells; format: cell-based, human; settings: listed as compound 1
Protocol: as §5

[15] = system: healthy normal fibroblast cells; test: JC-1 mitochondrial membrane potential assay, normal fibroblasts; format: cell-based; settings: 100 μM, 4 h and 48 h
Text: as §6, §7, §8

HeLa = test: Annexin-V flow cytometry, HeLa cells; format: cell-based, human; settings: 10 and 20 μM, 72 h
Protocol: as §4

[16] = system: NTera, HeLa, U2OS, A549, and MCF-7 cancer cells as well as MRC-5 normal fibroblasts; test: MTT assay, control experiments in all cells; format: cell-based, human
Protocol: The ability of the compound 1 to promote cell death was determined using the MTT assay and the results were compared against those for cisplatin or -2 DCA using NTera, HeLa, U2OS, A549, and MCF-7 cancer cells as well as MRC-5 normal fibroblasts (FIG. 3). […] This enhanced potency of mitaplatin is consistent with the expected dual killing mechanism.
as §2

O=C(O)C(Cl)Cl [DCA, Dichloroacetic acid]
IC50 ([1]; Homo sapiens): > 120 µM
IC50 ([2]; Homo sapiens, MRC5, 72 hours): > 100 µM
IC50 ([3]; Homo sapiens, NTERA2, 72 hours): > 0.4 µM
IC50 ([4]; Homo sapiens): > 120 µM
IC50 ([5]; Homo sapiens): > 8 µM
IC50 ([6]; Homo sapiens): > 200 µM
IC50 (U2OS, human osteosarcoma; Homo sapiens): > 100 µM
IC50 ([7]; Homo sapiens, MCF7, 72 hours): > 100 µM

[NH2][Pt]([NH2])([Cl])([Cl])([O]C(=O)C(Cl)Cl)[O]C(=O)C(Cl)Cl [Mitaplatin, c,c,t-[Pt(NH3)2Cl2(O2CCHCl2)2]]
IC50 [1]: 3.34 µM
apoptosis (Annexin-V) (U2OS): Apoptosis was detected
apoptosis inducing factor AIF location (NTera-2 cells [8]): located in the nucleus
cytochrome c distribution (NTera-2 cells [8]): diffusely distributed in the cytoplasm
reduction potential, Pt(IV)/Pt(II) couple ([9]; pH 6.0, 25° C.): −0.152 V vs Ag/AgCl
reduction potential, Pt(IV)/Pt(II) couple ([9]; pH 7.4, irreversible cyclic voltammetric response, 25° C.): ~−0.173 V vs Ag/AgCl
IC50 ([2]; 72 hours): 18.3 µM
cell death in co-culture, LIVE/DEAD staining [10]: selectively induced cell death in human cancer A549 cells, but not in normal MRC-5 cells
mitochondrial membrane potential (Δψm), TMRM [11]: had no effect; also recorded: does not change the Δψm
apoptosis (Annexin-V) (normal MRC-5 cells): did not show any detectable apoptosis
cell killing in co-culture [12]: selectively kills the cancer cells
IC50 ([3]; 72 hours): 0.051 µM
IC50 [4]: 1.1 µM
effect on mitochondria (JC-1 fluorescence) [13]: attacks the mitochondria
apoptosis (Annexin-V) (A549): Apoptosis was detected
IC50 [5]: 2 µM
IC50 [6]: 14 µM
mitochondrial membrane potential (Δψm), TMRM (NTera-2 cells [14]): significantly depolarizes; also recorded: reverses the hyperpolarization
effect on mitochondria (JC-1 fluorescence) [15]: had no effect
IC50 (U2OS, human osteosarcoma): 6.4 µM
IC50 ([7]; 72 hours): 18 µM
apoptosis (Annexin-V) (HeLa): Apoptosis was detected

CC(=O)[O][Pt]([NH2])([NH2])([Cl])([Cl])[O]C(C)=O [c,c,t-[Pt(NH3)2Cl2(O2CCH3)2]]
resistance of A2780/CP70 cells to the compound ([1]; A2780/CP70 cells): much more resistant
activity relative to mitaplatin [16]: less active by several fold than mitaplatin

cis-[Pt(NH3)2Cl2] [Cisplatin]
IC50 [1]: 6 µM
apoptosis (Annexin-V) (U2OS): Apoptosis was detected
IC50 ([2]; 72 hours): 9.5 µM
apoptosis (Annexin-V) (normal MRC-5 cells): showed apoptosis
cell killing in co-culture [12]: kills both the normal and cancer cells
IC50 ([3]; 72 hours): 0.043 µM
IC50 ([3]; 72 hours, listed as cis-DDP): 0.05 µM
IC50 [4]: 0.56 µM
apoptosis (Annexin-V) (A549): Apoptosis was detected
IC50 [5]: 1.2 µM
IC50 [6]: 12 µM
IC50 (U2OS, human osteosarcoma): 3.9 µM
IC50 ([7]; 72 hours): 13 µM
apoptosis (Annexin-V) (HeLa): Apoptosis was detected
